Results reported in ChEMBL document CHEMBL5649169 (ChemMedChem, 2018).

Legend:
[1] = species: Homo sapiens
[2] = target: Breakpoint cluster region protein (Homo sapiens) (UniProt P11274)
[3] = target: Calnexin (Homo sapiens) (UniProt P27824)
[4] = target: Cyclin-H (Homo sapiens) (UniProt P51946)
[5] = target: Cyclin-dependent kinase 12 (Homo sapiens) (UniProt Q9NYV4)
[6] = target: Anamorsin (Homo sapiens) (UniProt Q6FI81)
[7] = target: Crk-like protein (Homo sapiens) (UniProt P46109)
[8] = target: Tyrosine-protein kinase CSK (Homo sapiens) (UniProt P41240)
[9] = target: Mammalian ependymin-related protein 1 (Homo sapiens) (UniProt Q9UM22)
[10] = target: Fructosamine-3-kinase (Homo sapiens) (UniProt Q9H479)
[11] = target: Growth factor receptor-bound protein 2 (Homo sapiens) (UniProt P62993)
[12] = target: Calcium/calmodulin-dependent protein kinase kinase 2 (Homo sapiens) (UniProt Q96RR4)
[13] = target: GTP-binding protein 4 (Homo sapiens) (UniProt Q9BZE4)
[14] = species: Homo sapiens; remark: listed apart in the source
[15] = target: Heme oxygenase 2 (Homo sapiens) (UniProt P30519)
[16] = target: Heat shock protein HSP 90-beta (Homo sapiens) (UniProt P08238)
[17] = target: Phosphatidylinositol 3,4,5-trisphosphate 5-phosphatase 2 (Homo sapiens) (UniProt O15357)
[18] = target: Leucine-rich repeat flightless-interacting protein 1 (Homo sapiens) (UniProt Q32MZ4)
[19] = target: Protein LSM12 (Homo sapiens) (UniProt Q3MHD2)
[20] = target: Protein MAL2 (Homo sapiens) (UniProt Q969L2)
[21] = target: Microtubule-associated protein 1B (Homo sapiens) (UniProt P46821)
[22] = target: Mitogen-activated protein kinase kinase kinase kinase 5 (Homo sapiens) (UniProt Q9Y4K4)
[23] = target: S-adenosylmethionine synthase isoform type-2 (Homo sapiens) (UniProt P31153)
[24] = target: Metaxin-2 (Homo sapiens) (UniProt O75431)
[25] = target: Myosin light chain kinase, smooth muscle (Homo sapiens) (UniProt Q15746)
[26] = target: Nck-associated protein 1-like (Homo sapiens) (UniProt P55160)
[27] = target: NADH dehydrogenase [ubiquinone] iron-sulfur protein 2, mitochondrial (Homo sapiens) (UniProt O75306)
[28] = target: Programmed cell death 6-interacting protein (Homo sapiens) (UniProt Q8WUM4)
[29] = target: Prohibitin-2 (Homo sapiens) (UniProt Q99623)
[30] = target: Phosphatidylinositol 5-phosphate 4-kinase type-2 gamma (Homo sapiens) (UniProt Q8TBX8)
[31] = target: Serine/threonine-protein phosphatase 2A 55 kDa regulatory subunit B alpha isoform (Homo sapiens) (UniProt P63151)
[32] = target: Pre-mRNA-processing factor 40 homolog A (Homo sapiens) (UniProt O75400)
[33] = target: 26S proteasome regulatory subunit 4 (Homo sapiens) (UniProt P62191)
[34] = target: 26S proteasome regulatory subunit 6A (Homo sapiens) (UniProt P17980)
[35] = target: Ras-related protein Rab-7a (Homo sapiens) (UniProt P51149)
[36] = target: Ras association domain-containing protein 2 (Homo sapiens) (UniProt P50749)
[37] = target: Rho-associated protein kinase 1 (Homo sapiens) (UniProt Q13464)
[38] = target: Large ribosomal subunit protein uL14 (Homo sapiens) (UniProt P62829)
[39] = target: Ribosomal protein eS27-like (Homo sapiens) (UniProt Q71UM5)
[40] = target: STE20-like serine/threonine-protein kinase (Homo sapiens) (UniProt Q9H2G2)
[41] = target: Translocon-associated protein subunit gamma (Homo sapiens) (UniProt Q9UNL2)
[42] = target: Threonine--tRNA ligase 1, cytoplasmic (Homo sapiens) (UniProt P26639)
[43] = target: Testis-expressed protein 264 (Homo sapiens) (UniProt Q9Y6I9)
[44] = target: Translocator protein (Homo sapiens) (UniProt P30536)
[45] = target: Ubiquitin carboxyl-terminal hydrolase 10 (Homo sapiens) (UniProt Q14694)
[46] = target: WD repeat-containing protein 5 (Homo sapiens) (UniProt P61964)
[47] = target: Zinc finger CCCH domain-containing protein 11A (Homo sapiens) (UniProt O75152)
Also: assay method not described here.

Testis-expressed protein 264 (Homo sapiens), sequence (Q9Y6I9 whole entry): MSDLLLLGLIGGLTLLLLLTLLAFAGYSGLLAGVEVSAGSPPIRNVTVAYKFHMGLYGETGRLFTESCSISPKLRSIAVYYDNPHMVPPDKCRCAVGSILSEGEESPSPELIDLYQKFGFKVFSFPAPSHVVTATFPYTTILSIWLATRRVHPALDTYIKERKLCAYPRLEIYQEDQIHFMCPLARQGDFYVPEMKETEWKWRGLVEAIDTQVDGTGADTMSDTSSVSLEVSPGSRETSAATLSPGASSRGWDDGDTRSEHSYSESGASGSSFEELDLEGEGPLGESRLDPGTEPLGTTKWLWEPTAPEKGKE
Calnexin (Homo sapiens), sequence (P27824 whole entry): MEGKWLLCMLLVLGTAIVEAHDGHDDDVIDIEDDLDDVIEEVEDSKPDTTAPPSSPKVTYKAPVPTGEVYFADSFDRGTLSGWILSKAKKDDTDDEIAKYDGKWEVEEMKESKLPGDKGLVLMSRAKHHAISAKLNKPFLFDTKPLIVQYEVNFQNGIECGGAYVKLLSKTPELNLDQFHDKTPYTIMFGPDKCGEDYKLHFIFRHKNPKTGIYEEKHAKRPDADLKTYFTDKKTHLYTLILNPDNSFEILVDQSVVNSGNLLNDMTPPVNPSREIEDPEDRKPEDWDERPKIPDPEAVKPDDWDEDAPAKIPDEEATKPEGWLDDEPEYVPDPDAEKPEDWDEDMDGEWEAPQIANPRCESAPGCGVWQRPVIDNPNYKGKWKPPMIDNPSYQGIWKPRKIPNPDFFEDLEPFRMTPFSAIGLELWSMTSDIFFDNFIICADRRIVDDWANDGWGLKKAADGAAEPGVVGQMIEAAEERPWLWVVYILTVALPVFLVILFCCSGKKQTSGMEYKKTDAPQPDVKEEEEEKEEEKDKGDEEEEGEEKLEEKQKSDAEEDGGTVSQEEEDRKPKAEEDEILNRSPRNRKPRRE
Metaxin-2 (Homo sapiens), sequence (O75431 whole entry): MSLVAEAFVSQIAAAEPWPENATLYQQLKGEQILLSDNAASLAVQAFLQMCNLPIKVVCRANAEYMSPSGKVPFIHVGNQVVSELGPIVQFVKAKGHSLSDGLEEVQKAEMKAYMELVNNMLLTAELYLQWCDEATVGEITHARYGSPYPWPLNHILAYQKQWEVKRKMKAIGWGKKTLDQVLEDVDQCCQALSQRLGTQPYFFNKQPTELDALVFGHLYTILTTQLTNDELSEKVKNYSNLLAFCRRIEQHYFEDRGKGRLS
Rho-associated protein kinase 1 (Homo sapiens), sequence (Q13464 2-1354 limits assumed): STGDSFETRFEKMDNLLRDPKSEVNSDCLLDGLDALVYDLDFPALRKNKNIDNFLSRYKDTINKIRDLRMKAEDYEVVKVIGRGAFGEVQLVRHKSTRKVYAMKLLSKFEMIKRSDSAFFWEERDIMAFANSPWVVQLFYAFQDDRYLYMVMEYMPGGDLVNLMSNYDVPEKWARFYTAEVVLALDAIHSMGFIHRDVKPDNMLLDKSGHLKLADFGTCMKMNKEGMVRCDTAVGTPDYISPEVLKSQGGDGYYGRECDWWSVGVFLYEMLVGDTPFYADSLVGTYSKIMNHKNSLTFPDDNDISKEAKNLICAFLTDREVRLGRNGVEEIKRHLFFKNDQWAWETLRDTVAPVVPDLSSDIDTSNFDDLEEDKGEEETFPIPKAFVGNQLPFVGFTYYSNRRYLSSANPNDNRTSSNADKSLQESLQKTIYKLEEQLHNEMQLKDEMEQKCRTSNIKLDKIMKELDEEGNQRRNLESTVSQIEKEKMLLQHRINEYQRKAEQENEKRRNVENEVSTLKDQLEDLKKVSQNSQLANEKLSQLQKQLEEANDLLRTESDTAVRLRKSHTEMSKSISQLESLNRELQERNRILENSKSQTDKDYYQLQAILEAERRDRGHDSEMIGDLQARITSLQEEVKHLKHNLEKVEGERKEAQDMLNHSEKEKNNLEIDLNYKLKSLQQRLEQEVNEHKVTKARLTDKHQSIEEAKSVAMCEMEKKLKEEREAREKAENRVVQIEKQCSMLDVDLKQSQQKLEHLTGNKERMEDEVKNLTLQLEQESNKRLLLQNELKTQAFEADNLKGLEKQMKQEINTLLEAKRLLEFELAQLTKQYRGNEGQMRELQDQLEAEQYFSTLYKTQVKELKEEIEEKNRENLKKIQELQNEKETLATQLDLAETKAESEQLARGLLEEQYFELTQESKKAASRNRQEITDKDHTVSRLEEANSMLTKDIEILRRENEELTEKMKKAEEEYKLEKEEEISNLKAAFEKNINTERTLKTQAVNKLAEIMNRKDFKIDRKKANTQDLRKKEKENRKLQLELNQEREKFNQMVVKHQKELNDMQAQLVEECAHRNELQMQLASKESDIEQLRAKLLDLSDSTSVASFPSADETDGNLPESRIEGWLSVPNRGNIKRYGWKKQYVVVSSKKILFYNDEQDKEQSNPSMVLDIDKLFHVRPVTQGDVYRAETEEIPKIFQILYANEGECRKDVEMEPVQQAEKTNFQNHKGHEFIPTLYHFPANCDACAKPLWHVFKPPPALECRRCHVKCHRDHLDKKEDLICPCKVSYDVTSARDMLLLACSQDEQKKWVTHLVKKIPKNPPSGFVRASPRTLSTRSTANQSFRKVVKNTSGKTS
Crk-like protein (Homo sapiens), sequence (P46109 whole entry): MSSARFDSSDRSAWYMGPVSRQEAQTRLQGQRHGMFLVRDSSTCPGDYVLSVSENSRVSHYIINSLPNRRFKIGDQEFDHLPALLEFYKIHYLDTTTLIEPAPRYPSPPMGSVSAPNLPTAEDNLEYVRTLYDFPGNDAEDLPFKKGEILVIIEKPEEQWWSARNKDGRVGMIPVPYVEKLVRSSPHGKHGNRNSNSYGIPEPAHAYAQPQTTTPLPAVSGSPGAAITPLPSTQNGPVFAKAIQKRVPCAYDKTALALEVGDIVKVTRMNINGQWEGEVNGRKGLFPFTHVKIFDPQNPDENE
Prohibitin-2 (Homo sapiens), sequence (Q99623 whole entry): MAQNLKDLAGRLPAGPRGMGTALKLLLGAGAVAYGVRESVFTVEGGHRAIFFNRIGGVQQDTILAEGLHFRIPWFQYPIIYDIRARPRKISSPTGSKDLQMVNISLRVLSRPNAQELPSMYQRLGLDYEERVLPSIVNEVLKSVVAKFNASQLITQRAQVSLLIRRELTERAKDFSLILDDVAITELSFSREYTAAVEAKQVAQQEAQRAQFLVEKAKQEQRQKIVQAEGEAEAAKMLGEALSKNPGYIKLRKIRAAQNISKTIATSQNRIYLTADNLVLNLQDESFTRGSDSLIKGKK
Nck-associated protein 1-like (Homo sapiens), sequence (P55160 whole entry): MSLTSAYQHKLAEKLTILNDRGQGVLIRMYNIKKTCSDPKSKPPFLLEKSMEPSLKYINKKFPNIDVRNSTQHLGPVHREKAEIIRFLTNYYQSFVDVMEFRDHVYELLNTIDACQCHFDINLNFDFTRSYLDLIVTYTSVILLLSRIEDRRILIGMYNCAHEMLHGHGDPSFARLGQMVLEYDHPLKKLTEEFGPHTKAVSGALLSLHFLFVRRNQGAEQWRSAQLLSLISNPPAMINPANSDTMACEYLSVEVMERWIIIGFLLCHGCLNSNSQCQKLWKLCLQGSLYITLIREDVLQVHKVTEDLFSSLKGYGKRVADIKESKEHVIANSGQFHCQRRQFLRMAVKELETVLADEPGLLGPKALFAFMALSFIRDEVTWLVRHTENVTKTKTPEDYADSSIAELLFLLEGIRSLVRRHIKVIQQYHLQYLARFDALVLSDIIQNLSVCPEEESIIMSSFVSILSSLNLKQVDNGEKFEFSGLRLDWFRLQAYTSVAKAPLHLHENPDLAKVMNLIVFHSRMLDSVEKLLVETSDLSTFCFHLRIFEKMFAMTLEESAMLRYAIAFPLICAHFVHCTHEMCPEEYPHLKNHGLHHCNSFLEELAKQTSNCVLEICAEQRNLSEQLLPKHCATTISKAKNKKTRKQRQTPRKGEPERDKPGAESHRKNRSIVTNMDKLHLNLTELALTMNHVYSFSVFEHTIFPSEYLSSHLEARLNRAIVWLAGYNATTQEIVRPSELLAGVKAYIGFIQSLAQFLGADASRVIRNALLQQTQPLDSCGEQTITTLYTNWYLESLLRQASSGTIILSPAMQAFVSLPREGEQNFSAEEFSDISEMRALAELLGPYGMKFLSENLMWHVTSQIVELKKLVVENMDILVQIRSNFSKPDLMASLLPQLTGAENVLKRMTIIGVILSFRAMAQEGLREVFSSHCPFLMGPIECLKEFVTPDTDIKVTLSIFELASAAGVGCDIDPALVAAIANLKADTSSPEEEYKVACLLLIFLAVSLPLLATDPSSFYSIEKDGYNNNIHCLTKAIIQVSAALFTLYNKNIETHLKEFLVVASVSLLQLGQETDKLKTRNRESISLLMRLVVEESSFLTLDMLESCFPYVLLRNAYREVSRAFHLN
Protein LSM12 (Homo sapiens), sequence (Q3MHD2 whole entry): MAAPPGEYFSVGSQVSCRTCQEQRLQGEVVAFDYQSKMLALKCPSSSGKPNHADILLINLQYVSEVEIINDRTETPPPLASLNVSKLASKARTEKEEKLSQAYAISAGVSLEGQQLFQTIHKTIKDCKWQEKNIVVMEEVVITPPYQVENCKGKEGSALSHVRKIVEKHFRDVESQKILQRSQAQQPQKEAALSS
26S proteasome regulatory subunit 4 (Homo sapiens), sequence (P62191 whole entry): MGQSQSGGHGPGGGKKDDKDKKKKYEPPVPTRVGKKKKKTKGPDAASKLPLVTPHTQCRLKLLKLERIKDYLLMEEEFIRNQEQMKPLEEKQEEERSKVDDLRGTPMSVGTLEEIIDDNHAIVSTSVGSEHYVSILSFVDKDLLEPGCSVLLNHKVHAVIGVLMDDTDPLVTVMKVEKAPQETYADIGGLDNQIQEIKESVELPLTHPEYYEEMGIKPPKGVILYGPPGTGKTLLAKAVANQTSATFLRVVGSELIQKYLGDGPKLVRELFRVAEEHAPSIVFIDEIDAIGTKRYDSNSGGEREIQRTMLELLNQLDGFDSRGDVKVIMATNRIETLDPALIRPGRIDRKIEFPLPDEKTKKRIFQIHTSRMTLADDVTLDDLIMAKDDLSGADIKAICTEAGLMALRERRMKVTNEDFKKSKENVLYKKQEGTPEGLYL

Cc1ccc(C(=O)Nc2cccc(C(F)(F)F)c2)cc1Nc1nc(-c2cccnc2)nc2c1cnn2C
ED50 [1]: 3.03 µM
ED50 [2]: 0.488 µM
ED50 [3]: 5.64 µM
ED50 [4]: 0.0553 µM
ED50 [5]: 0.00103 µM
ED50 [6]: 0.0673 µM
ED50 [7]: 0.0843 µM
ED50 [8]: 4.52 µM
ED50 [9]: 0.362 µM
ED50 [10]: 7.31 µM
ED50 [11]: 0.0534 µM
ED50 [12]: 0.112 µM
ED50 [13]: 2.95 µM
ED50 [14]: 11.6 µM
ED50 [15]: 4.08 µM
ED50 [16]: 0.000546 µM
ED50 [17]: 0.364 µM
ED50 [18]: 3.51 µM
ED50 [19]: 0.00519 µM
ED50 [20]: 0.177 µM
ED50 [21]: 0.0244 µM
ED50 [22]: 5.17 µM
ED50 [23]: 11.2 µM
ED50 [24]: 0.0101 µM
ED50 [25]: 0.247 µM
ED50 [26]: 41.5 µM
ED50 [27]: 0.0453 µM
ED50 [28]: 4.91 µM
ED50 [29]: 7.38 µM
ED50 [30]: 0.29 µM
ED50 [31]: 3.68 µM
ED50 [32]: 0.0134 µM
ED50 [33]: 91.8 µM
ED50 [34]: 7.62 µM
ED50 [35]: 6.59 µM
ED50 [36]: 0.0164 µM
ED50 [37]: 11 µM
ED50 [38]: 11.7 µM
ED50 [39]: 6.46 µM
ED50 [40]: 0.0219 µM
ED50 [41]: 12.7 µM
ED50 [42]: 0.00531 µM
ED50 [43]: 5.04 µM
ED50 [44]: 0.103 µM
ED50 [45]: 4.33 µM
ED50 [46]: 0.0527 µM
ED50 [47]: 0.149 µM

Cc1ccc(C(=O)Nc2cccc(C(F)(F)F)c2)cc1Nc1nc(-c2cccnc2)nc2nn(C)cc12
ED50 [1]: 7.5 µM
ED50 [2]: 0.852 µM
ED50 [3]: 9.63 µM
ED50 [4]: 13.2 µM
ED50 [5]: 0.435 µM
ED50 [6]: 78.8 µM
ED50 [7]: 10.2 µM
ED50 [8]: 1.86 µM
ED50 [9]: 0.016 µM
ED50 [10]: 0.291 µM
ED50 [11]: 0.821 µM
ED50 [12]: 10.2 µM
ED50 [13]: 0.593 µM
ED50 [14]: 1.33 µM
ED50 [15]: 0.02 µM
ED50 [16]: 0.083 µM
ED50 [17]: 1.01 µM
ED50 [18]: 0.228 µM
ED50 [19]: 5.58 µM
ED50 [20]: 1.68 µM
ED50 [21]: 0.01 µM
ED50 [22]: 13.4 µM
ED50 [23]: 0.0257 µM
ED50 [24]: 1.77 µM
ED50 [25]: 0.00038 µM
ED50 [26]: 1530 µM
ED50 [27]: 1.24 µM
ED50 [28]: 4.24 µM
ED50 [29]: 0.0686 µM
ED50 [30]: 0.0058 µM
ED50 [31]: 0.377 µM
ED50 [32]: 0.0135 µM
ED50 [33]: 0.00477 µM
ED50 [34]: 0.00497 µM
ED50 [35]: 0.44 µM
ED50 [36]: 3.43 µM
ED50 [37]: 2.23 µM
ED50 [38]: 7.5 µM
ED50 [39]: 0.00432 µM
ED50 [40]: 0.187 µM
ED50 [41]: 0.0505 µM
ED50 [42]: 0.0576 µM
ED50 [43]: 0.0539 µM
ED50 [44]: 0.0238 µM
ED50 [45]: 0.0387 µM
ED50 [46]: 0.0363 µM
ED50 [47]: 3.88 µM
